Test results reported in patent US9302999B2, “Substituted triazoles as herbicides” (E. I. DU PONT DE NEMOURS AND COMPANY, priority 2012, dated 2016).

Tests used:
Assay type in all cases: in vivo
[1] = test system: barnyardgrass (Echinochloa crus-galli); assay: Test A pre-/postemergence: barnyardgrass; conditions: for Barnyardgrass plant response rating: Postemergence; for Plant response rating, Barnyardgrass: Preemergence
How it was run: (§1)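 Plants in loam–sand blend were treated with test chemicals in non-phytotoxic solvent with surfactant, either as preemergence directed soil spray or postemergence at 2–10 cm, one- to two-leaf stage. After about ten days in greenhouse, injury was rated visually against untreated controls on a 0–100 scale (100 = complete control).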

[2] = test system: crabgrass, large (large crabgrass, Digitaria sanguinalis); assay: Test A pre-/postemergence: crabgrass, large; conditions: for Crabgrass, Large plant response rating: Postemergence; for Plant response rating, Crabgrass, Large: Preemergence
How it was run: as §1

[3] = test system: foxtail, giant (giant foxtail, Setaria faberii); assay: Test A pre-/postemergence: foxtail, giant; conditions: for Foxtail, Giant plant response rating: Postemergence; for Plant response rating, Foxtail, Giant: Preemergence
How it was run: as §1

[4] = test system: morningglory (Ipomoea spp.); assay: Test A pre-/postemergence: morningglory; conditions: for Morningglory plant response rating: Postemergence; for Plant response rating, Morningglory: Preemergence
How it was run: as §1

[5] = test system: pigweed (Amaranthus retroflexus); assay: Test A pre-/postemergence: pigweed; conditions: for Pigweed plant response rating: Postemergence; for Plant response rating, Pigweed: Preemergence
How it was run: as §1

[6] = test system: velvetleaf (Abutilon theophrasti); assay: Test A pre-/postemergence: velvetleaf; conditions: for Velvetleaf plant response rating: Postemergence; for Plant response rating, Velvetleaf: Preemergence
How it was run: as §1

[7] = test system: wheat (Triticum aestivum); assay: Test A pre-/postemergence: wheat; conditions: for Wheat plant response rating: Postemergence; for Plant response rating, Wheat: Preemergence
How it was run: as §1

[8] = test system: corn (Zea mays); assay: Test A pre-/postemergence: corn; conditions: for Corn plant response rating: Postemergence; for Plant response rating, Corn: Preemergence
How it was run: as §1

[9] = test system: rice (Oryza sativa); assay: Test C flooded paddy test: rice; conditions: scale 0 to 100 (0 no effect, 100 complete control)
How it was run: (§2)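 Plants were grown to the 2-leaf stage, pots flooded to 3 cm above soil, and test compounds applied directly to the paddy water, with that depth held throughout. After 13 to 15 days in a greenhouse, injury was visually rated against controls on a 0 (no effect) to 100 (complete control) scale.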

[10] = test system: sedge, umbrella (small-flower umbrella sedge, Cyperus difformis); assay: Test C flooded paddy test: sedge, umbrella; conditions: scale 0 to 100 (0 no effect, 100 complete control)
How it was run: as §2

[11] = test system: ducksalad (Heteranthera limosa); assay: Test C flooded paddy test: ducksalad; conditions: scale 0 to 100 (0 no effect, 100 complete control)
How it was run: as §2

[12] = test system: barnyardgrass (Echinochloa crus-galli); assay: Test C flooded paddy test: barnyardgrass; conditions: scale 0 to 100 (0 no effect, 100 complete control)
How it was run: as §2

[13] = 125 g ai/ha, 0 to 100 scale, 0 is no effect, 100 is complete control
[14] = 500 g ai/ha, visual rating on 0 to 100 scale (0 no effect, 100 complete control), approximately ten days
[15] = 125 g ai/ha, 0 to 100 scale (0 no effect, 100 complete control)
[16] = 500 g ai/ha, 0 to 100 scale, 0 is no effect, 100 is complete control
[17] = Flood (flooded paddy test), 62 g ai/ha, visual rating after 13 to 15 days
[18] = Flood (flooded paddy test), 125 g ai/ha, visual rating after 13 to 15 days
[19] = Flood (flooded paddy test), 250 g ai/ha, visual rating after 13 to 15 days

## Cc1nn(-c2ccc(C(F)(F)F)cc2)nc1Oc1cnn(CC(F)(F)F)c1 [Compound 74]
[1]; [13]
  Barnyardgrass plant response rating: 0
[1]; [14]
  Barnyardgrass plant response rating: 0
[1]; [15]
  Plant response rating, Barnyardgrass: 0
[1]; [16]
  Plant response rating, Barnyardgrass: 0
[2]; [13]
  Crabgrass, Large plant response rating: 0
[2]; [14]
  Crabgrass, Large plant response rating: 0
[2]; [15]
  Plant response rating, Crabgrass, Large: 0
[2]; [16]
  Plant response rating, Crabgrass, Large: 0
[3]; [13]
  Foxtail, Giant plant response rating: 0
[3]; [14]
  Foxtail, Giant plant response rating: 0
[3]; [15]
  Plant response rating, Foxtail, Giant: 0
[3]; [16]
  Plant response rating, Foxtail, Giant: 0
[4]; [13]
  Morningglory plant response rating: 0
[4]; [14]
  Morningglory plant response rating: 0
[4]; [15]
  Plant response rating, Morningglory: 0
[4]; [16]
  Plant response rating, Morningglory: 0
[5]; [13]
  Pigweed plant response rating: 0
[5]; [14]
  Pigweed plant response rating: 0
[5]; [15]
  Plant response rating, Pigweed: 0
[5]; [16]
  Plant response rating, Pigweed: 0
[6]; [13]
  Velvetleaf plant response rating: 0
[6]; [14]
  Velvetleaf plant response rating: 0
[6]; [15]
  Plant response rating, Velvetleaf: 0
[6]; [16]
  Plant response rating, Velvetleaf: 0
[7]; [13]
  Wheat plant response rating: 0
[7]; [14]
  Wheat plant response rating: 0
[7]; [15]
  Plant response rating, Wheat: 0
[7]; [16]
  Plant response rating, Wheat: 0
[8]; [13]
  Corn plant response rating: 0
[8]; [14]
  Corn plant response rating: 0
[8]; [15]
  Plant response rating, Corn: 0
[8]; [16]
  Plant response rating, Corn: 0
[9]; [17]
  Plant response rating, Rice: 0
[9]; [18]
  Plant response rating, Rice: 0
[9]; [19]
  Plant response rating, Rice: 0
[9]; Flood, 31 g ai/ha
  Plant response rating, Rice: 0
[10]; [17]
  Plant response rating, Sedge, Umbrella: 0
[10]; [18]
  Plant response rating, Sedge, Umbrella: 0
[10]; [19]
  Plant response rating, Sedge, Umbrella: 0
[10]; Flood, 31 g ai/ha
  Plant response rating, Sedge, Umbrella: 0
[11]; [17]
  Plant response rating, Ducksalad: 0
[11]; [18]
  Plant response rating, Ducksalad: 0
[11]; [19]
  Plant response rating, Ducksalad: 0
[11]; Flood, 31 g ai/ha
  Plant response rating, Ducksalad: 0
[12]; [17]
  Plant response rating, Barnyardgrass: 0
[12]; [18]
  Plant response rating, Barnyardgrass: 0
[12]; [19]
  Plant response rating, Barnyardgrass: 0
[12]; Flood, 31 g ai/ha
  Plant response rating, Barnyardgrass: 0

## COc1nn(-c2ccc(C(F)(F)F)cc2)nc1C(=O)c1ccnc(C(F)(F)F)c1 [Compound 75]
[1]; [13]
  Barnyardgrass plant response rating: 0
[1]; [14]
  Barnyardgrass plant response rating: 10
[1]; [15]
  Plant response rating, Barnyardgrass: 10
[1]; [16]
  Plant response rating, Barnyardgrass: 20
[2]; [13]
  Crabgrass, Large plant response rating: 10
[2]; [14]
  Crabgrass, Large plant response rating: 20
[2]; [15]
  Plant response rating, Crabgrass, Large: 20
[2]; [16]
  Plant response rating, Crabgrass, Large: 70
[3]; [13]
  Foxtail, Giant plant response rating: 10
[3]; [14]
  Foxtail, Giant plant response rating: 20
[3]; [15]
  Plant response rating, Foxtail, Giant: 50
[3]; [16]
  Plant response rating, Foxtail, Giant: 90
[4]; [13]
  Morningglory plant response rating: 0
[4]; [14]
  Morningglory plant response rating: 30
[5]; [13]
  Pigweed plant response rating: 30
[5]; [14]
  Pigweed plant response rating: 60
[5]; [15]
  Plant response rating, Pigweed: 30
[5]; [16]
  Plant response rating, Pigweed: 40
[6]; [13]
  Velvetleaf plant response rating: 10
[6]; [14]
  Velvetleaf plant response rating: 10
[6]; [15]
  Plant response rating, Velvetleaf: 0
[6]; [16]
  Plant response rating, Velvetleaf: 0
[7]; [13]
  Wheat plant response rating: 0
[7]; [14]
  Wheat plant response rating: 0
[7]; [15]
  Plant response rating, Wheat: 0
[7]; [16]
  Plant response rating, Wheat: 10
[8]; [13]
  Corn plant response rating: 0
[8]; [14]
  Corn plant response rating: 10
[8]; [15]
  Plant response rating, Corn: 0
[8]; [16]
  Plant response rating, Corn: 0
[9]; [17]
  Plant response rating, Rice: 0
[9]; [18]
  Plant response rating, Rice: 0
[9]; [19]
  Plant response rating, Rice: 0
[9]; Flood, 31 g ai/ha
  Plant response rating, Rice: 0
[10]; [17]
  Plant response rating, Sedge, Umbrella: 0
[10]; [18]
  Plant response rating, Sedge, Umbrella: 0
[10]; [19]
  Plant response rating, Sedge, Umbrella: 0
[10]; Flood, 31 g ai/ha
  Plant response rating, Sedge, Umbrella: 0
[11]; [17]
  Plant response rating, Ducksalad: 0
[11]; [18]
  Plant response rating, Ducksalad: 0
[11]; [19]
  Plant response rating, Ducksalad: 0
[11]; Flood, 31 g ai/ha
  Plant response rating, Ducksalad: 0
[12]; [17]
  Plant response rating, Barnyardgrass: 0
[12]; [18]
  Plant response rating, Barnyardgrass: 0
[12]; [19]
  Plant response rating, Barnyardgrass: 0
[12]; Flood, 31 g ai/ha
  Plant response rating, Barnyardgrass: 0
